How the values were obtained:
Assay in all cases: relative viability (nuclei count vs DMSO), 5 days (fraction); higher = more cells survive
[1] = test system: SW 1573
Summary of the method: (§1)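 Nuclei were stained with Hoechst during a one-step fixation (final 0.05% Triton X-100, 1% formaldehyde, 1 ug/ml Hoechst) carried out 5 days after dosing, then counted on 4× images. The cells, lung cancer lines in 1536-well plates, had been dosed by pin tool the day after seeding with one drug alone or a fixed anchor-drug dose plus five library-drug doses (not always all listed) in √10 steps. Relative viability is the nuclei count in treated wells divided by that in vehicle wells, and each value is the median of duplicate plates.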

[2] = test system: NCI-H2009
Summary of the method: as §1

[3] = test system: HOP-62
Summary of the method: as §1

[4] = test system: NCI-H2170
Summary of the method: as §1

[5] = test system: EMC-BAC-2
Summary of the method: as §1

[6] = test system: PC-3 [JPC-3]
Summary of the method: as §1

[7] = test system: A-427
Summary of the method: as §1

[8] = test system: NCI-H727
Summary of the method: as §1

[9] = test system: HARA
Summary of the method: as §1

[10] = test system: NCI-H1993
Summary of the method: as §1

[11] = test system: NCI-H322M
Summary of the method: as §1

[12] = test system: ABC-1
Summary of the method: as §1

[13] = test system: NCI-H596
Summary of the method: as §1

[14] = test system: NCI-H1944
Summary of the method: as §1

[15] = test system: NCI-H2228
Summary of the method: as §1

[16] = test system: NCI-H3122
Summary of the method: as §1

[17] = test system: SW 900
Summary of the method: as §1

[18] = test system: LK-2
Summary of the method: as §1

[19] = test system: LXF-289
Summary of the method: as §1

[20] = test system: SK-MES-1
Summary of the method: as §1

CCN(CC)CCCCNc1ncc2cc(-c3cc(OC)cc(OC)c3)c(NC(=O)NC(C)(C)C)nc2n1 + COc1cc2c(Oc3ccc(NC(=O)C4(C(=O)Nc5ccc(F)cc5)CC4)cc3F)ccnc2cc1OCCCN1CCOCC1 [Foretinib] (partner 0.25 µM)
relative viability ([1]; first compound 0.01 µM): 0.928
relative viability ([1]; first compound 0.03162 µM): 0.878
relative viability ([1]; first compound 0.1 µM): 0.924
relative viability ([1]; first compound 0.3162 µM): 0.896
relative viability ([1]; first compound 1 µM): 0.814
relative viability ([2]; first compound 0.01 µM): 1.33
relative viability ([2]; first compound 0.03162 µM): 1.25
relative viability ([2]; first compound 0.1 µM): 1.22
relative viability ([2]; first compound 0.3162 µM): 1.29
relative viability ([2]; first compound 1 µM): 1.18
relative viability ([3]; first compound 0.01 µM): 1.15
relative viability ([3]; first compound 0.03162 µM): 1.13
relative viability ([3]; first compound 0.1 µM): 1.24
relative viability ([3]; first compound 0.3162 µM): 1.16
relative viability ([3]; first compound 1 µM): 1.12
relative viability ([4]; first compound 0.01 µM): 0.929
relative viability ([4]; first compound 0.03162 µM): 1.05
relative viability ([4]; first compound 0.1 µM): 0.961
relative viability ([4]; first compound 0.3162 µM): 1.08
relative viability ([4]; first compound 1 µM): 0.999
relative viability ([5]; first compound 0.01 µM): 0.54
relative viability ([5]; first compound 0.03162 µM): 1.02
relative viability ([5]; first compound 0.1 µM): 0.983
relative viability ([5]; first compound 0.3162 µM): 1.13
relative viability ([5]; first compound 1 µM): 0.952
relative viability ([6]; first compound 0.01 µM): 1.08
relative viability ([6]; first compound 0.03162 µM): 1.07
relative viability ([6]; first compound 0.1 µM): 1.13
relative viability ([6]; first compound 0.3162 µM): 1.16
relative viability ([6]; first compound 1 µM): 1.04
relative viability ([7]; first compound 0.01 µM): 1.18
relative viability ([7]; first compound 0.03162 µM): 1.11
relative viability ([7]; first compound 0.1 µM): 1.18
relative viability ([7]; first compound 0.3162 µM): 1.1
relative viability ([7]; first compound 1 µM): 0.99
relative viability ([8]; first compound 0.01 µM): 0.956
relative viability ([8]; first compound 0.03162 µM): 0.834
relative viability ([8]; first compound 0.1 µM): 0.919
relative viability ([8]; first compound 0.3162 µM): 1.05
relative viability ([8]; first compound 1 µM): 0.844
relative viability ([9]; first compound 0.01 µM): 0.996
relative viability ([9]; first compound 0.03162 µM): 0.848
relative viability ([9]; first compound 0.1 µM): 0.998
relative viability ([9]; first compound 0.3162 µM): 0.985
relative viability ([9]; first compound 1 µM): 0.493
relative viability ([10]; first compound 0.01 µM): 0.751
relative viability ([10]; first compound 0.03162 µM): 0.791
relative viability ([10]; first compound 0.1 µM): 0.934
relative viability ([10]; first compound 0.3162 µM): 0.917
relative viability ([10]; first compound 1 µM): 0.714
relative viability ([11]; first compound 0.01 µM): 0.991
relative viability ([11]; first compound 0.03162 µM): 0.946
relative viability ([11]; first compound 0.1 µM): 1.08
relative viability ([11]; first compound 0.3162 µM): 1.01
relative viability ([11]; first compound 1 µM): 0.966
relative viability ([12]; first compound 0.01 µM): 1.22
relative viability ([12]; first compound 0.03162 µM): 0.951
relative viability ([12]; first compound 0.1 µM): 1.3
relative viability ([12]; first compound 0.3162 µM): 1.14
relative viability ([12]; first compound 1 µM): 1.16
relative viability ([13]; first compound 0.01 µM): 0.852
relative viability ([13]; first compound 0.03162 µM): 0.919
relative viability ([13]; first compound 0.1 µM): 0.943
relative viability ([13]; first compound 0.3162 µM): 0.931
relative viability ([13]; first compound 1 µM): 0.73
relative viability ([14]; first compound 0.01 µM): 0.848
relative viability ([14]; first compound 0.03162 µM): 0.873
relative viability ([14]; first compound 0.1 µM): 0.844
relative viability ([14]; first compound 0.3162 µM): 0.946
relative viability ([14]; first compound 1 µM): 0.771
relative viability ([15]; first compound 0.01 µM): 1.03
relative viability ([15]; first compound 0.03162 µM): 1.01
relative viability ([15]; first compound 0.1 µM): 1.35
relative viability ([15]; first compound 0.3162 µM): 0.998
relative viability ([15]; first compound 1 µM): 0.635
relative viability ([16]; first compound 0.01 µM): 0.967
relative viability ([16]; first compound 0.03162 µM): 0.927
relative viability ([16]; first compound 0.1 µM): 1.08
relative viability ([16]; first compound 0.3162 µM): 1.05
relative viability ([16]; first compound 1 µM): 1.02
relative viability ([17]; first compound 0.01 µM): 0.891
relative viability ([17]; first compound 0.03162 µM): 0.733
relative viability ([17]; first compound 0.3162 µM): 0.745
relative viability ([17]; first compound 1 µM): 0.557
relative viability ([18]; first compound 0.01 µM): 1.06
relative viability ([18]; first compound 0.03162 µM): 1.13
relative viability ([18]; first compound 0.1 µM): 1.66
relative viability ([18]; first compound 0.3162 µM): 0.962
relative viability ([18]; first compound 1 µM): 0.663
relative viability ([19]; first compound 0.01 µM): 0.979
relative viability ([19]; first compound 0.03162 µM): 0.989
relative viability ([19]; first compound 0.1 µM): 1.02
relative viability ([19]; first compound 0.3162 µM): 0.975
relative viability ([19]; first compound 1 µM): 0.851
relative viability ([20]; first compound 0.01 µM): 0.973
relative viability ([20]; first compound 0.03162 µM): 1.17
relative viability ([20]; first compound 0.1 µM): 0.88
relative viability ([20]; first compound 0.3162 µM): 1.12
relative viability ([20]; first compound 1 µM): 0.889

— the supplement of paper PMC10307832
